What all share (format): in vivo
Assay [1] relates to McIntosh® Apple trees. In words: Example 2: cyclanilide vs ReTain vs untreated on apple trees, results just before harvest. To be noted: for % cumulative fruit dropped from tree / Fruit Starch Index: just before harvest. From the text: An orchard of McIntosh® Apple trees at a stage where the apples were approximately 4.5 cm in diameter were sprayed with an aqueous suspension comprising cyclanilide and Regulaid®, a non-ionic surfactant (0.25% v/v) at several rates. About two months later, the following observations were made:
The process of Example 1 was repeated using an aqueous suspension comprising cyclanilide and a surfactant using an application rate of cyclanilide of 50 g/ha. As a comparison, ReTain® ([S]-trans-2-amino-4-(2-aminoethoxy)-3-butenoic acid) was applied according to commercially acceptable methods on another plot of trees and another plot of trees were left untreated.
Just before harvest, the following results were obtained: […]

Assay [2] relates to apple trees. In words: General findings on apples treated by the method of the invention (description).
Assay [3] has as its system McIntosh® Apple trees. In words: Example 1: spraying McIntosh apple trees with cyclanilide suspension, observations about two months later. To be noted: about two months after spraying; for % fruit dropped from tree: with Regulaid 0.25% v/v. The source says:
An orchard of McIntosh® Apple trees at a stage where the apples were approximately 4.5 cm in diameter were sprayed with an aqueous suspension comprising cyclanilide and Regulaid®, a non-ionic surfactant (0.25% v/v) at several rates. About two months later, the following observations were made: […]

Setting [4] is: compared with untreated fruit and fruit treated by prior art compounds.

Turning to `NCCO/C=C/[C@H](N)C(=O)O` (stereo in doubt) [ReTain ®, [S]-trans-2-amino-4-(2-aminoethoxy)-3-butenoic acid, reference compound], in assay [1] (125 g/ha of ingredient), the “% cumulative fruit dropped from tree” value was determined as 68.2% and the “Fruit Starch Index” value is listed as 5.4.
On to `O=C(O)C1(C(=O)Nc2ccc(Cl)cc2Cl)CC1` [cyclanilide, 1-(2,4-dichloroanilinocarbonyl)cyclopropane carboxylic acid], for which the “starch content of apples” value in assay [2] (compared with apples not treated) was “lower starch content than apples not treated by the method of the invention”. For the same molecule, the “color characteristic of apples” value in assay [2] (compared with fruit treated by prior art compounds) was “better color characteristic than fruit treated by prior art compounds”. In assay [2] (setting [4]), the “content of soluble solids as measured by the BRIX index” value was “higher content of soluble solids than untreated fruit and than fruit treated by prior art compounds”; the firmness of apples entry was “greater firmness than untreated fruit and than fruit treated by prior art compounds”. The “amount of fruit drop as a function of the amount applied” value in assay [2] (general statement) is listed as “generally decreases as a function of the amount of cyclanilide applied”. For the same molecule, in assay [1] (50 g/ha of ingredient), the “% cumulative fruit dropped from tree” value is given as 47.4% and the “Fruit Starch Index” value worked out at 5.0. The “color of the fruit” value in assay [1] (cyclanilide 50 g/ha, compared with ReTain-treated fruit) is recorded as “better than that of the fruit treated by the prior art compound ReTain®”. Besides, in assay [1] (cyclanilide 50 g/ha, compared with untreated fruit and ReTain-treated fruit), the “overall quality of fruit” value is “better than that of the untreated fruit and that obtained from treatment by the prior art compound ReTain®”. For the same molecule, in assay [3] (cyclanilide 50 g/ha), the “BRIX index (soluble solids)” value is given as 13, the “Fruit Starch Index” value worked out at 5.1 and the “% fruit dropped from tree” value is reported as 6%. In assay [3] (cyclanilide 100 g/ha), the “BRIX index (soluble solids)” value was 12.9, the “Fruit Starch Index” value came out at 5.0 and the “% fruit dropped from tree” value amounted to 9.8%. For the same molecule, in assay [3] (cyclanilide 200 g/ha), the “BRIX index (soluble solids)” value is listed as 13.0, the “Fruit Starch Index” value is 4.9 and the “% fruit dropped from tree” value was 13.5%.
